Measurements: the NIST ThermoML archive (doi:10.1016/j.jct.2006.07.017)

Experiment: xn = mol fraction of the nth substance listed
Details: 101 kPa, Liquid

Cc1ccccc1C [1,2-dimethylbenzene] + CN(C)C=O
Details	mass density [kg/m3]
293.15 K, x1 = 0.0555	943.56
293.15 K, x1 = 0.1111	938.71
293.15 K, x1 = 0.1754	933.3
293.15 K, x1 = 0.2352	928.47
293.15 K, x1 = 0.2952	923.8
293.15 K, x1 = 0.3562	919.23
293.15 K, x1 = 0.4251	914.29
293.15 K, x1 = 0.4865	910.06
293.15 K, x1 = 0.5484	905.95
293.15 K, x1 = 0.612	901.89
293.15 K, x1 = 0.6785	897.8
293.15 K, x1 = 0.7325	894.58
293.15 K, x1 = 0.7954	890.96
293.15 K, x1 = 0.8654	887.04
293.15 K, x1 = 0.9325	883.4
303.15 K, x1 = 0.0652	933.58
303.15 K, x1 = 0.1251	928.39
303.15 K, x1 = 0.1854	923.37
303.15 K, x1 = 0.2462	918.5
303.15 K, x1 = 0.3125	913.42
303.15 K, x1 = 0.3785	908.59
303.15 K, x1 = 0.4358	904.56
303.15 K, x1 = 0.4962	900.47
303.15 K, x1 = 0.5521	896.83
303.15 K, x1 = 0.6125	893.04
303.15 K, x1 = 0.6784	889.05
303.15 K, x1 = 0.7451	885.17
303.15 K, x1 = 0.8012	882.01
303.15 K, x1 = 0.8658	878.48
303.15 K, x1 = 0.9485	874.12
313.15 K, x1 = 0.0441	926.11
313.15 K, x1 = 0.1025	920.99
313.15 K, x1 = 0.1762	914.82
313.15 K, x1 = 0.2341	910.18
313.15 K, x1 = 0.2951	905.51
313.15 K, x1 = 0.3756	899.63
313.15 K, x1 = 0.4415	895.06
313.15 K, x1 = 0.5012	891.08
313.15 K, x1 = 0.5685	886.8
313.15 K, x1 = 0.6215	883.55
313.15 K, x1 = 0.6865	879.72
313.15 K, x1 = 0.7451	876.39
313.15 K, x1 = 0.8021	873.25
313.15 K, x1 = 0.8654	869.88
313.15 K, x1 = 0.9448	865.79
323.15 K, x1 = 0.0485	916.16
323.15 K, x1 = 0.1124	910.62
323.15 K, x1 = 0.1852	904.61
323.15 K, x1 = 0.2521	899.35
323.15 K, x1 = 0.3251	893.91
323.15 K, x1 = 0.3952	888.96
323.15 K, x1 = 0.4658	884.2
323.15 K, x1 = 0.5315	879.99
323.15 K, x1 = 0.5952	876.08
323.15 K, x1 = 0.6584	872.37
323.15 K, x1 = 0.7251	868.61
323.15 K, x1 = 0.7952	864.81
323.15 K, x1 = 0.8456	862.18
323.15 K, x1 = 0.9012	859.35
323.15 K, x1 = 0.9599	856.45
333.15 K, x1 = 0.0521	906.08
333.15 K, x1 = 0.1245	899.89
333.15 K, x1 = 0.1895	894.6
333.15 K, x1 = 0.2451	890.29
333.15 K, x1 = 0.3021	886.06
333.15 K, x1 = 0.3685	881.35
333.15 K, x1 = 0.4214	877.76
333.15 K, x1 = 0.4912	873.24
333.15 K, x1 = 0.5584	869.09
333.15 K, x1 = 0.6121	865.92
333.15 K, x1 = 0.6725	862.48
333.15 K, x1 = 0.7315	859.26
333.15 K, x1 = 0.7943	855.95
333.15 K, x1 = 0.8651	852.38
333.15 K, x1 = 0.9432	848.58
343.15 K, x1 = 0.0625	895.2
343.15 K, x1 = 0.1325	889.33
343.15 K, x1 = 0.1952	884.33
343.15 K, x1 = 0.2658	878.99
343.15 K, x1 = 0.3321	874.24
343.15 K, x1 = 0.3965	869.86
343.15 K, x1 = 0.4652	865.41
343.15 K, x1 = 0.5325	861.27
343.15 K, x1 = 0.5912	857.83
343.15 K, x1 = 0.6524	854.4
343.15 K, x1 = 0.7125	851.16
343.15 K, x1 = 0.7895	847.19
343.15 K, x1 = 0.8462	844.4
343.15 K, x1 = 0.9012	841.76
343.15 K, x1 = 0.9577	839.14
353.15 K, x1 = 0.0715	884.27
353.15 K, x1 = 0.1252	879.83
353.15 K, x1 = 0.1858	875.05
353.15 K, x1 = 0.2521	870.08
353.15 K, x1 = 0.3215	865.16
353.15 K, x1 = 0.3865	860.79
353.15 K, x1 = 0.4251	858.31
353.15 K, x1 = 0.4851	854.59
353.15 K, x1 = 0.5584	850.27
353.15 K, x1 = 0.6221	846.71
353.15 K, x1 = 0.6825	843.48
353.15 K, x1 = 0.7551	839.78
353.15 K, x1 = 0.8154	836.84
353.15 K, x1 = 0.8851	833.58
353.15 K, x1 = 0.9411	831.05

Cc1cccc(C)c1 [1,3-dimethylbenzene] + CN(C)C=O
Details	mass density [kg/m3]
293.15 K, x1 = 0.0541	942.31
293.15 K, x1 = 0.1151	935.54
293.15 K, x1 = 0.1752	929.18
293.15 K, x1 = 0.2332	923.31
293.15 K, x1 = 0.3021	916.67
293.15 K, x1 = 0.3661	910.82
293.15 K, x1 = 0.4341	904.88
293.15 K, x1 = 0.4984	899.53
293.15 K, x1 = 0.5624	894.44
293.15 K, x1 = 0.6165	890.3
293.15 K, x1 = 0.6751	885.98
293.15 K, x1 = 0.7315	881.96
293.15 K, x1 = 0.8085	876.67
293.15 K, x1 = 0.8758	872.21
293.15 K, x1 = 0.9425	867.93
303.15 K, x1 = 0.0625	932.16
303.15 K, x1 = 0.1251	925.21
303.15 K, x1 = 0.1852	918.87
303.15 K, x1 = 0.2515	912.21
303.15 K, x1 = 0.3251	905.23
303.15 K, x1 = 0.3895	899.45
303.15 K, x1 = 0.4517	894.13
303.15 K, x1 = 0.5214	888.45
303.15 K, x1 = 0.5865	883.4
303.15 K, x1 = 0.6485	878.8
303.15 K, x1 = 0.7125	874.25
303.15 K, x1 = 0.7885	869.05
303.15 K, x1 = 0.8458	865.29
303.15 K, x1 = 0.9012	861.75
303.15 K, x1 = 0.9666	857.68
313.15 K, x1 = 0.0569	923.43
313.15 K, x1 = 0.1125	917.21
313.15 K, x1 = 0.1812	909.9
313.15 K, x1 = 0.2554	902.46
313.15 K, x1 = 0.3251	895.89
313.15 K, x1 = 0.4023	889.03
313.15 K, x1 = 0.4785	882.65
313.15 K, x1 = 0.5445	877.43
313.15 K, x1 = 0.6054	872.82
313.15 K, x1 = 0.6695	868.19
313.15 K, x1 = 0.7254	864.3
313.15 K, x1 = 0.7812	860.56
313.15 K, x1 = 0.8452	856.41
313.15 K, x1 = 0.9032	852.77
313.15 K, x1 = 0.9577	849.43
323.15 K, x1 = 0.0482	914.86
323.15 K, x1 = 0.1065	908.29
323.15 K, x1 = 0.1684	901.67
323.15 K, x1 = 0.2341	895.02
323.15 K, x1 = 0.3051	888.24
323.15 K, x1 = 0.3659	882.75
323.15 K, x1 = 0.4252	877.65
323.15 K, x1 = 0.4932	872.11
323.15 K, x1 = 0.5641	866.62
323.15 K, x1 = 0.6247	862.17
323.15 K, x1 = 0.6951	857.22
323.15 K, x1 = 0.7554	853.17
323.15 K, x1 = 0.8251	848.68
323.15 K, x1 = 0.8812	845.18
323.15 K, x1 = 0.9572	840.6
333.15 K, x1 = 0.0547	904.33
333.15 K, x1 = 0.1122	897.9
333.15 K, x1 = 0.1815	890.59
333.15 K, x1 = 0.2551	883.29
333.15 K, x1 = 0.3151	877.68
333.15 K, x1 = 0.3821	871.76
333.15 K, x1 = 0.4554	865.64
333.15 K, x1 = 0.5054	861.68
333.15 K, x1 = 0.5625	857.35
333.15 K, x1 = 0.6262	852.72
333.15 K, x1 = 0.6785	849.09
333.15 K, x1 = 0.7412	844.91
333.15 K, x1 = 0.8054	840.8
333.15 K, x1 = 0.8714	836.74
333.15 K, x1 = 0.9548	831.81
343.15 K, x1 = 0.0625	893.44
343.15 K, x1 = 0.1214	886.95
343.15 K, x1 = 0.1851	880.31
343.15 K, x1 = 0.2451	874.4
343.15 K, x1 = 0.3121	868.17
343.15 K, x1 = 0.3852	861.78
343.15 K, x1 = 0.4451	856.83
343.15 K, x1 = 0.5054	852.1
343.15 K, x1 = 0.5641	847.72
343.15 K, x1 = 0.6214	843.62
343.15 K, x1 = 0.6885	839.06
343.15 K, x1 = 0.7451	835.37
343.15 K, x1 = 0.8125	831.16
343.15 K, x1 = 0.8821	827
343.15 K, x1 = 0.9525	822.95
353.15 K, x1 = 0.0521	884.42
353.15 K, x1 = 0.112	877.82
353.15 K, x1 = 0.1785	870.9
353.15 K, x1 = 0.2352	865.33
353.15 K, x1 = 0.2958	859.69
353.15 K, x1 = 0.3562	854.38
353.15 K, x1 = 0.4215	848.95
353.15 K, x1 = 0.4854	843.93
353.15 K, x1 = 0.5412	839.75
353.15 K, x1 = 0.6121	834.72
353.15 K, x1 = 0.6858	829.79
353.15 K, x1 = 0.7551	825.38
353.15 K, x1 = 0.8254	821.12
353.15 K, x1 = 0.8851	817.65
353.15 K, x1 = 0.9512	813.95
